Test results published in PMC3479967 (Evidence-based Complementary and Alternative Medicine : eCAM, 2012).

Assays:
[1] = molecular target: T1, UGT1A4 (Homo sapiens, UniProt P22310); test: Inhibition of recombinant UGT1A4 activity (TFP glucuronidation); assay type: biochemical; conditions: recombinant UGT1A4
T1 construct: purchased BD Gentest Corp. (Woburn, MA, USA); host or cells: baculovirus-infected insect cells
T1 sequence (P22310 29-534): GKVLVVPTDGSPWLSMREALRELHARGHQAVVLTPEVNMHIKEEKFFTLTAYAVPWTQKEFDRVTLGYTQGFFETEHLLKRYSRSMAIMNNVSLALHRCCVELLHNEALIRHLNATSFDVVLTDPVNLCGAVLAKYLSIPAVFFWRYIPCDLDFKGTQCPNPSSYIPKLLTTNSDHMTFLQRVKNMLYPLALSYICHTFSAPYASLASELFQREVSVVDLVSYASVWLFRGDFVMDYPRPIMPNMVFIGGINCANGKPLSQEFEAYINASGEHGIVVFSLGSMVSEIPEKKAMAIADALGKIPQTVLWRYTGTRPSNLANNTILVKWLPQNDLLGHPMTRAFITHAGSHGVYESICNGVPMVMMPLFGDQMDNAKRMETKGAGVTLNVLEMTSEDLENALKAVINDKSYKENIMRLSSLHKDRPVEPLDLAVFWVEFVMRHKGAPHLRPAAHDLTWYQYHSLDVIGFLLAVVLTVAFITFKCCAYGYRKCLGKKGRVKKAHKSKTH
Method: TFP was used as the substrate for UGT1A4. Trifluoperazine glucuronide (TFPG) formation was measured using a modification of the method reported. […] Reactions were initiated by the addition of UDPGA and incubations were performed at 37°C in a shaking water bath for 20 min. Incubations were terminated by the addition of 4% acetic acid/96% methanol (0.2 mL) and then centrifuged at 20,500 ×g for 15 min. A 40 μL aliquot of the supernatant fraction was injected into the HPLC column. […] A gradient mobile phase consisting initially of 30 : 70, mobile phase A (acetonitrile) verse mobile phase B (0.5% formic acid/water) was brought to a composition of 90 : 10 in 10 min which was held for 7 min, all at a flow rate of 1 mL/min. Column eluant was monitored by UV absorbance 256 nm. […] The negative controls are the incubation without UDPGA.

[2] = molecular target: T2, UGT1A7 (Homo sapiens, UniProt Q9HAW7); test: Inhibition of recombinant UGT1A7 activity (4-MU glucuronidation); conditions: recombinant UGT1A7
T2 sequence (Q9HAW7 26-530): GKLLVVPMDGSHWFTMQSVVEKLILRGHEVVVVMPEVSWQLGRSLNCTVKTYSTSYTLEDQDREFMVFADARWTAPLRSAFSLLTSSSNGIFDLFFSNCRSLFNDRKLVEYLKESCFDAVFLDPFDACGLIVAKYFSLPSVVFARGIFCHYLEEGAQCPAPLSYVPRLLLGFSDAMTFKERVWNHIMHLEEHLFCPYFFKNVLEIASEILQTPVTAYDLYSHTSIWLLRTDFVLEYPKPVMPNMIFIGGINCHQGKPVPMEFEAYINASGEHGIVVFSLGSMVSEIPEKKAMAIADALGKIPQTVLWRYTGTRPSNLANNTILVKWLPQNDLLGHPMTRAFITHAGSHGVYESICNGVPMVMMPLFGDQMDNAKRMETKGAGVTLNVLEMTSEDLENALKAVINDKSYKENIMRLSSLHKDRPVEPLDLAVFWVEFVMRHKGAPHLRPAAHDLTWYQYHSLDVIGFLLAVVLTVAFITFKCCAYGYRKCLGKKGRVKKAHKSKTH
Method: (§1) A panel of recombinant human UGT supersomes (UGT1A1, UGT1A3, UGT1A4, UGT1A6, UGT1A7, UGT1A8, UGT1A9, UGT1A10, UGT2B4, UGT2B7, UGT2B15, and UGT2B17) expressed in baculovirus-infected insect cells were purchased from BD Gentest Corp. (Woburn, MA, USA).
(§2) 4-MU, a nonselective substrate of UGTs, was used as probe substrate for all UGTs except UGT1A4. Incubations with each individual enzyme were conducted using conditions previously described. There was a 5 min preincubation step at 37°C before the reaction was started by addition of UDPGA. The incubation mixtures were then centrifuged at 20,500 ×g for 15 min to obtain the supernatant. Aliquots (20 μL) were then analyzed by HPLC. The HPLC system (SHIMADZU, Kyoto, Japan) consisted of an SCL-10A system controller, two LC-10AT pumps, a SIL-10A auto injector, and a SPD-10AVP UV detector. Chromatographic separation was achieved using a Kromasil ODS column (4.6 × 150 mm I.D., 5 μm particle size) at a flow rate of 1 mL/min and UV detection at 316 nm. The mobile phase consisted of 10 mM KH2PO4, pH 2.7 (A) and acetonitrile (B). The following gradient was applied at a flow rate of 1 mL/min: 0–4 min 80% A and 20% B, 4.1–8 min 50% A and 50% B, 8.1–12 min, 30% A and 70% B. All experiments were performed in two independent experiments in duplicate.
(§3) A typical incubation mixture contained recombinant human UGTs, 5 mM MgCl2, 5 mM UDPGA, 50 μg/mg protein alamethicin, 50 mM Tris-HCl buffer (pH 7.4), and various probe substrates of UGTs in the absence or presence of different concentrations of inhibitors. […] The final concentration of DMSO in the incubation system was 1% (v/v). […] Known UGT inhibitors were used as positive controls: diclofenac for UGT1A1, UGT1A6, UGT1A7, and UGT1A9; androsterone for UGT1A3, UGT2B7, and UGT2B15, phenylbutazone for UGT1A8 and UGT1A10, and hecogenin for UGT1A4, respectively. There is no positive control reported available for UGT2B4 and UGT2B17. The negative controls are the incubation without UDPGA. […] The final concentration of DMSO in the incubation system was 1% (v/v). […] There was a 5 min preincubation step at 37°C before the reaction was started by the addition of UDPGA. Incubation times were 120 min for UGT1A1, UGT1A10, UGT2B4, UGT2B15, and UGT2B17, 75 min for UGT1A3, and 30 min for UGT1A4, UGT1A6, UGT1A7, UGT1A8, and UGT1A9. The reactions were quenched by adding 100 μL acetonitrile and internal standard. The incubation mixtures were then centrifuged at 20,500 ×g for 15 min to obtain the supernatant. An aliquot of the supernatant was used for HPLC analysis as described above. All experiments were performed in two independent experiments in duplicate.
Inhibition data from experiments were graphically represented by Dixon plots. K i values were calculated by nonlinear regression using the equations for competitive inhibition (1), noncompetitive inhibition (2), or mixed inhibition (3), [22] (1) v =VmaxS/Km(1+(I/Ki))+S, (2) v =VmaxS/(Km+S)(1+(I/Ki)), (3) v =VmaxS/Km (1+(I/Ki))+S(1+(I/αKi)), where v is the velocity of the reaction; S and I are the substrate and inhibitor concentrations, respectively; K i is the inhibition constant describing the affinity of the inhibitor for the enzyme; K m is the substrate concentration at half of the maximum velocity (V max) of the reaction; α reflects the effect of inhibitor on the affinity of the enzyme for its substrate. The type of inhibition was determined from the enzyme inhibition models. Goodness of fit to kinetic and inhibition models was assessed from the F statistic, r ^2 values, parameter standard error estimates, and 95% confidence intervals. Kinetic constants are reported as the mean value ± standard error of the parameter estimate.

[3] = molecular target: T3, UGT2B7 (Homo sapiens, UniProt P16662); test: Inhibition of recombinant UGT2B7 activity (4-MU glucuronidation)
T3 sequence (P16662 24-529): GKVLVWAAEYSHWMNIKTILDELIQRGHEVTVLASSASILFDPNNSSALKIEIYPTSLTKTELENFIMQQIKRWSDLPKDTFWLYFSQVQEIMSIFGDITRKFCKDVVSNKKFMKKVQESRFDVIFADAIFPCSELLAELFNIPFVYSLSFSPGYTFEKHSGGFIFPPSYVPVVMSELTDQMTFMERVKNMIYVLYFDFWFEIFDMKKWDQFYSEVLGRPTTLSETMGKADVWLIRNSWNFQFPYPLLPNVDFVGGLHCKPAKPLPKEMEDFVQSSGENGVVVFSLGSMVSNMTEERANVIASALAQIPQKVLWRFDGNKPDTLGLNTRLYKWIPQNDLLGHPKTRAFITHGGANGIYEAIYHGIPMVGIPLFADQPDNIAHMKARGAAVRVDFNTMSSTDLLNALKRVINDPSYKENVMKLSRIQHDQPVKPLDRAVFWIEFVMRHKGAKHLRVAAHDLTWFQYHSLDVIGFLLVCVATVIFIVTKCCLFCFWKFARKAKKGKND
Method: as §1, §2, §3
Inhibition data from experiments were graphically represented by Dixon plots. K i values were calculated by nonlinear regression using the equations for competitive inhibition (1), noncompetitive inhibition (2), or mixed inhibition (3), [22] […] The type of inhibition was determined from the enzyme inhibition models. Goodness of fit to kinetic and inhibition models was assessed from the F statistic, r ^2 values, parameter standard error estimates, and 95% confidence intervals. […]

Substance: Icariside II
- Inhibition type against UGT1A4 [1]: competitive
- Inhibition type against UGT1A7 [2]: noncompetitive
- Inhibition type against UGT2B7 ([3]; recombinant UGT2B7): mixed
- α of mixed inhibition against UGT2B7 ([3]; recombinant UGT2B7, mixed inhibition model): 3.3
